# Test results as given in the PolyMetriX glass transition set.
row,SMILES,glass transition temperature
1,*CC(*)C(=O)OCCOCC(F)(F)C(F)(F)C(F)(F)F (repeat unit),-45.00 °C
2,*c1ccc2c(c1)C(=O)N(c1ccc(C3(c4ccc(N5C(=O)c6ccc(C(*)(C(F)(F)F)C(F)(F)F)cc6C5=O)cc4)c4ccccc4-c4ccccc43)cc1)C2=O (repeat unit),370.00 °C
3,*CC(CS(=O)(=O)C(C)C)O* (repeat unit),64.00 °C
4,*CCCNC(=O)c1ccc(C(=O)NCCCO*)cc1 (repeat unit),72.00 °C
5,*N=P(Cl)(N=P(Cl)(/N=S(/*)Oc1ccccc1-c1ccccc1)Oc1ccccc1-c1ccccc1)Oc1ccccc1-c1ccccc1 (repeat unit),79.00 °C
6,*c1ccc2c(c1)C(=O)N(c1c(C)cc(-c3cc(C)c(N4C(=O)c5ccc(C(*)(C(F)(F)F)C(F)(F)F)cc5C4=O)c(C)c3)cc1C)C2=O (repeat unit),370.50 °C
7,*CCCCCCCCCCOc1ccc(/C=C/c2ccc(OCCCCCCCCCCOP(=O)(O*)OCCCCCCCCCCOc3ccc(/N=N/c4ccc([N+](=O)[O-])cc4)cc3)cc2)cc1 (repeat unit),50.00 °C
8,*CC(C)(CCC)C(=O)O* (repeat unit),1.90 °C
9,*CC(*)(C)C(=O)OCc1c(Cl)cccc1Cl (repeat unit),58.90 °C
10,*c1ccc(-c2cc(-c3ccc(-c4ccccc4)cc3)cc(-c3ccc(N4C(=O)c5ccc(NC(=O)Nc6ccc(Oc7ccccc7-c7ccccc7Oc7ccc(NC(=O)Nc8ccc9c(c8)C(=O)N(*)C9=O)cc7)cc6)cc5C4=O)cc3)n2)cc1 (repeat unit),249.00 °C
11,*CC(*)OC(=O)C(C)(C)CCC (repeat unit),10.00 °C
12,*C(=O)Nc1cc(NC(=O)c2cccc(*)n2)cc(-c2nnc(-c3ccccn3)o2)c1 (repeat unit),255.00 °C
13,*CC(*)C(=O)OCC(C)O (repeat unit),-7.00 °C
14,*OC(C)C(=O)NC(C)C(*)=O (repeat unit),57.7 °C
15,*CC(*)(C)C(=O)OCCNC(C)(C)C (repeat unit),41.00 °C
16,*CC(*)c1ccc(CCCCCCCCCC)cc1 (repeat unit),-65.00 °C
17,*c1ccc(Oc2ccc(-c3nc4ccc(Oc5ccc6nc(*)c(-c7ccccc7)c(-c7ccccc7)c6c5)cc4c(-c4ccccc4)c3-c3ccccc3)cc2)cc1 (repeat unit),305.00 °C
18,*CC(*)c1ccccc1OC(C)=O (repeat unit),118.00 °C

# More lines, now with the values ahead:
row,glass transition temperature,SMILES
1,119.00 °C,*Oc1ccc(Oc2ccc(Oc3cccc(C(=O)Oc4ccc(-c5ccc(OC(=O)c6cccc(*)c6)cc5)cc4)c3)cc2)cc1 (repeat unit)
2,216.00 °C,*Nc1cc(NC(=O)c2cccc(C(*)=O)c2)cc(C(=O)OCCOc2ccc(/C=C/C(=O)c3ccccc3)cc2)c1 (repeat unit)
3,324.00 °C,*c1cc(C(=O)Nc2ccc(-c3nnc(*)o3)cc2)cc(N2C(=O)c3ccccc3C2=O)c1 (repeat unit)
4,230.00 °C,*Oc1cccc(Oc2ccc(NC(=O)c3cc(NC(=O)c4ccc(OC(C)=O)cc4)cc(C(=O)Nc4ccc(*)cc4)c3)cc2)c1 (repeat unit)
5,230.00 °C,*Oc1cccc(NC(=O)c2cc(C(=O)Nc3ccc(*)cc3)cc(C(F)(F)C(F)(F)C(F)(F)C(F)(F)F)c2)c1 (repeat unit)
6,228.00 °C,*Oc1ccc(S(=O)(=O)c2ccc(Oc3ccc(C(C)(c4ccc(*)cc4)c4ccc(O)cc4)cc3)cc2)cc1 (repeat unit)
7,46.00 °C,*Oc1ccc(CC(NC(=O)CCc2ccc(OC(=O)CCCCCCC(*)=O)cc2)C(=O)OC(C)CC)cc1 (repeat unit)
8,117.00 °C,*Oc1ccc(SC(=O)Sc2ccc(*)cc2)cc1 (repeat unit)
9,239.00 °C,*c1ccc(Oc2ccc(N3C(=O)c4cccc(Oc5ccc(Oc6ccc(Oc7cccc8c7C(=O)N(*)C8=O)cc6)cc5)c4C3=O)cc2)cc1 (repeat unit)
